{"source": "patent US9994614B2", "about": "“N-methyl-D-aspartate receptor modulators and methods of making and using same” (Naurex, Inc., priority 2014, dated 2018)", "assay_type_in_all_cases": "biochemical", "key": {"NR2A": {"biological_target": "T1, NR2A (Rattus norvegicus, UniProt Q00959)", "T1 construct": "corresponding to 200 μg of rat cortical membrane extract protein in each reaction; from tissue; host or cells: rat telencephalon (frontal cortex and hippocampus), male Sprague-Dawley", "T1 sequence (Q00959 23-1464, other chains not shown)": "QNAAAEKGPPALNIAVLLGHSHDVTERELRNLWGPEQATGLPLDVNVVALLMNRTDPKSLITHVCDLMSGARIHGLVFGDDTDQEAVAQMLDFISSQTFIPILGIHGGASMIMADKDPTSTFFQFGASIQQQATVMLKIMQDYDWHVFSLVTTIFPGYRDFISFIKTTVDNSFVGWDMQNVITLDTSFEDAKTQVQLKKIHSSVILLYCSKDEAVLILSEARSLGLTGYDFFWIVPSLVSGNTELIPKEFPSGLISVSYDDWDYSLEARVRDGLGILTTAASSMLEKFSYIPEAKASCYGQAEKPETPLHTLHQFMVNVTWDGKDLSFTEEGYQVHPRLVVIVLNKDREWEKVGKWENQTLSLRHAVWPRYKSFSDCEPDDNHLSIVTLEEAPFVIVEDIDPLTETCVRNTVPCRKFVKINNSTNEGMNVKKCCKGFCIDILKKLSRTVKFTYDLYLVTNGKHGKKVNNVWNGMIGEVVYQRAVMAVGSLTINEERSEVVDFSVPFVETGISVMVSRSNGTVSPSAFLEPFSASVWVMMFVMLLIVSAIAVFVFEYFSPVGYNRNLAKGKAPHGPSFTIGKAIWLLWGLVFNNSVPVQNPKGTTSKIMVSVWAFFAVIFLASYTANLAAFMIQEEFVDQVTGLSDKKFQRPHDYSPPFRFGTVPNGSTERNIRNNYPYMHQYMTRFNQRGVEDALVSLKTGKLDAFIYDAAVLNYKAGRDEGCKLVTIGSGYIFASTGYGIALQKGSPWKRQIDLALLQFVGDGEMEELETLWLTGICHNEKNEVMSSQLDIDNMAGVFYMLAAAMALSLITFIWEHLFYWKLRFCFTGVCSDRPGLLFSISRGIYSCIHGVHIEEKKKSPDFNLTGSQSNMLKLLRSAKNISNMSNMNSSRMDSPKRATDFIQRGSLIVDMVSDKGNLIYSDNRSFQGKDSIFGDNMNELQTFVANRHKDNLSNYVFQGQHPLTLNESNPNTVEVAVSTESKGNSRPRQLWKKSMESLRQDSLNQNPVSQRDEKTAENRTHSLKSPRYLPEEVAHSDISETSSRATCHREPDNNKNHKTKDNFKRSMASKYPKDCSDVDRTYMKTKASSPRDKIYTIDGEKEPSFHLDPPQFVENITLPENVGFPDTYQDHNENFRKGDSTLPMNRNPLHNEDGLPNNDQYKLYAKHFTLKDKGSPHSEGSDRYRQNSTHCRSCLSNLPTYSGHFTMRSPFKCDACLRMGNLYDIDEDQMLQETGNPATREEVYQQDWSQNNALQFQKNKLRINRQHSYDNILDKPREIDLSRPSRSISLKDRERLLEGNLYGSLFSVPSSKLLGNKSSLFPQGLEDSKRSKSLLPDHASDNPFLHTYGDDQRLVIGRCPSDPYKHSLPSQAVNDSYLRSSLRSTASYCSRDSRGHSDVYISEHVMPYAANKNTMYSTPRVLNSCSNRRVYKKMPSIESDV", "experiment": "[3H]MK-801 potentiation assay, NR2A", "procedure": "Briefly, tissue that had been stored at −80° C. was homogenized in ice cold 10 mM Tris (pH7.4 at 4° C.) using a Brinkman Polytron and then pelleted by centrifugation at 51,500 g for 20 min. The resulting supernatant was discarded and the membranes were homogenized and washed an additional 3×. Pellets were then resuspended in 5 mM EDTA/15 mM Tris (pH7.4) and incubated for 1 hr at 37° C. The membrane suspensions were then pelleted by centrifugation at 51,500 g for 20 min and stored at −80° C. overnight. The pellets were resuspended in 10 mM Tris HCl (pH7.4 at 4° C.) and homogenized and washed an additional 7 times and frozen at […] until assay.\nBriefly, 300 μg of membrane extract protein were preincubated for 15 minutes at 25° C. in the presence of a saturating concentration of glutamate (50 μM) and varying concentrations of GLYX-13. […] Zero levels were determined in the absence of any glycine ligand in the presence of 30 μM dichlorokyneurenic acid. […]\nThe origin of aberrantly high background glycine, or bioactive plastic leachates that act like glycine, can stemrom either the water itself, the LC/MS grade water filter used, or a result of time-dependent leaching from plasticware (including storage tubes, beakers, pipette tips). […] Absolute background percentages are calculated. […]\nSamples must wait at least 3 hours prior to quantitation in the scintillation counter. […]"}, "NR2D": {"biological_target": "T2, NR2D (Rattus norvegicus, UniProt Q62645)", "T2 construct": "corresponding to 200 μg of rat cortical membrane extract protein in each reaction; from tissue; host or cells: rat telencephalon (frontal cortex and hippocampus), male Sprague-Dawley", "T2 sequence (Q62645 28-1323, other chains not shown)": "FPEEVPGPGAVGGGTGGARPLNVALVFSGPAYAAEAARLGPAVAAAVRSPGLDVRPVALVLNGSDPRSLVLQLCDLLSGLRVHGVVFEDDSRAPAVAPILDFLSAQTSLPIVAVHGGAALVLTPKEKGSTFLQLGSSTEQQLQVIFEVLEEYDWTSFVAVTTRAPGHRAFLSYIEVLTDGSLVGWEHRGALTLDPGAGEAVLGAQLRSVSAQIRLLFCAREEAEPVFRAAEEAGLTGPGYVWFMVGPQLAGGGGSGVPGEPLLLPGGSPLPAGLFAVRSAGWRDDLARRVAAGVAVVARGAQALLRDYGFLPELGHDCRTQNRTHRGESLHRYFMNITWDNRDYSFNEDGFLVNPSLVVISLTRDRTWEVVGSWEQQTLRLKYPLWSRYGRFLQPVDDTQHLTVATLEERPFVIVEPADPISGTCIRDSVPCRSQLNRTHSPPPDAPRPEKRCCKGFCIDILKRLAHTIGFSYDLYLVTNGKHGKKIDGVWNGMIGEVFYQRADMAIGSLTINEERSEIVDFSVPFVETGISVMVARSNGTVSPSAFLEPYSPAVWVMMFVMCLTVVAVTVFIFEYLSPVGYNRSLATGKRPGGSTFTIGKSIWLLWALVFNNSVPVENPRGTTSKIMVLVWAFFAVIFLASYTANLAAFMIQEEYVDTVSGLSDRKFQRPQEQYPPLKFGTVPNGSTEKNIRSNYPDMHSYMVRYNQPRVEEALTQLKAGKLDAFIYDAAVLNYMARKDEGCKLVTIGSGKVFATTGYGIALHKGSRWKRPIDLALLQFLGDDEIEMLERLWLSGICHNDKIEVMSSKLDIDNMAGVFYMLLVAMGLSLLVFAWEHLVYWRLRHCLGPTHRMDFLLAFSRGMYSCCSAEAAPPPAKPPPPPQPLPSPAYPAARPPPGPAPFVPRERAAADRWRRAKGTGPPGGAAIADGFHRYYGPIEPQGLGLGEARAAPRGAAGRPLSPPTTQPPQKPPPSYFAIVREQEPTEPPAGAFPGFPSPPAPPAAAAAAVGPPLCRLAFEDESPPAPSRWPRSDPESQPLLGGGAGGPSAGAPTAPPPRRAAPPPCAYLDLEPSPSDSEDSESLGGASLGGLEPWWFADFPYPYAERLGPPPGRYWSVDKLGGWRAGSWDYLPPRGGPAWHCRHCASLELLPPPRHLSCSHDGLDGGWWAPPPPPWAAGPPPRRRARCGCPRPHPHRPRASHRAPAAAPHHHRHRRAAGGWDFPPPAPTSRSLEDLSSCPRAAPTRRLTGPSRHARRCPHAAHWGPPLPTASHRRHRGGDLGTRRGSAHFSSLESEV", "experiment": "[3H]MK-801 potentiation assay, NR2D", "details": "for NR2D Activity % max glycine: relative to stimulation by 1 mM glycine and 50 μM glutamate"}, "NR2B": {"biological_target": "T3, NR2B (Rattus norvegicus, UniProt Q00960)", "T3 construct": "corresponding to 200 μg of rat cortical membrane extract protein in each reaction; from tissue; host or cells: rat telencephalon (frontal cortex and hippocampus), male Sprague-Dawley", "T3 sequence (Q00960 27-1482, other chains not shown)": "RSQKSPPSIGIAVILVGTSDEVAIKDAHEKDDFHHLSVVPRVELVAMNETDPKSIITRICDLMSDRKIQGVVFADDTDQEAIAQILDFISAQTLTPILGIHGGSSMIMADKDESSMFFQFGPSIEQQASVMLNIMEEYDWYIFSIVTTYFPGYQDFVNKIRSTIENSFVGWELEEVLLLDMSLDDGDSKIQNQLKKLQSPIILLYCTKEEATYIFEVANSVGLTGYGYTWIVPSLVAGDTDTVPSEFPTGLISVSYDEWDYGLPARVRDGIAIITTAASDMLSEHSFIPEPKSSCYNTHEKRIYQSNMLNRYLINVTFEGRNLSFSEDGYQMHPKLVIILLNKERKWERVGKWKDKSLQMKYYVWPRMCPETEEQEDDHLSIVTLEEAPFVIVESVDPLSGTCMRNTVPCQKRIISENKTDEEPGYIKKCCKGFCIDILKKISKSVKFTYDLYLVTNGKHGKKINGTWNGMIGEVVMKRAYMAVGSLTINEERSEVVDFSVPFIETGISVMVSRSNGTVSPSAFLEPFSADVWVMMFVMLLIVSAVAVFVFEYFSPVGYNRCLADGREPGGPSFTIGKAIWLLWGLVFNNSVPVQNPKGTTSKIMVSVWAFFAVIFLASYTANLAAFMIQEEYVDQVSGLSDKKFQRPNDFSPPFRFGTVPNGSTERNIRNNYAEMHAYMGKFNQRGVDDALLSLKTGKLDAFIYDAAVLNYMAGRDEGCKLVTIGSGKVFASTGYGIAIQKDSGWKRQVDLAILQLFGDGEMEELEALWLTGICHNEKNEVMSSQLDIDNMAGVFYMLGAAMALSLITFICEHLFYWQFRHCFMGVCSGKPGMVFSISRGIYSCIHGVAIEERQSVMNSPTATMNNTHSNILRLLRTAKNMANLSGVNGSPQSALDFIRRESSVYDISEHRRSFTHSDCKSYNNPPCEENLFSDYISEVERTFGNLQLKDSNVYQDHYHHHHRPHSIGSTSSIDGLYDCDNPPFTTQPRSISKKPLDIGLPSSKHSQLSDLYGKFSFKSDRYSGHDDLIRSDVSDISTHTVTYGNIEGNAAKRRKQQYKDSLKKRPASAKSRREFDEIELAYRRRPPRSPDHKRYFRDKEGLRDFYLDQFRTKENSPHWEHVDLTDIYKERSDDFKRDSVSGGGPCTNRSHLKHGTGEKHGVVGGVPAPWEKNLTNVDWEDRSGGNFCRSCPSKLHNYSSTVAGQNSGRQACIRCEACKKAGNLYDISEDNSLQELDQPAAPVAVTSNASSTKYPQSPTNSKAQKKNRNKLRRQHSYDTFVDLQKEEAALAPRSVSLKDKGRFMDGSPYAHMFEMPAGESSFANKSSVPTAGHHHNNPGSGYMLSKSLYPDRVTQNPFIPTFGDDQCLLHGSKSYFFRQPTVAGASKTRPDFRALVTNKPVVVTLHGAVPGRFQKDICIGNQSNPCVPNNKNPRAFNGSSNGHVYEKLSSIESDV", "experiment": "[3H]MK-801 potentiation assay, NR2B", "procedure": "Crude synaptic membranes were prepared using rat telencephalon (frontal cortex and hippocampus tissue) from male Sprague-Dawley rats and extensively washed using procedures modified from the Moskal et al. 2001 Review; The use of antibody engineering to create novel drugs that target N-methyl-D-aspartate receptors, Current Drug Targets, 2(3):331-45. Briefly, tissue that had been stored at −80° C. was homogenized in ice cold 10 mM Tris (pH7.4 at 4° C.) using a Brinkman Polytron and then pelleted by centrifugation at 51,500 g for 20 min. The resulting supernatant was discarded and the membranes were homogenized and washed an additional 3×. […]\nFunctional glycine site agonist effects were measured using an a [^3H]MK-801 potentiation assay (see Urwyler S, Floersheim P, Roy B L, Koller M. J Med Chem. (2009) 52(16):5093-107). […] Zero levels were determined in the absence of any glycine ligand in the presence of 30 μM dichlorokyneurenic acid. The % maximal [^3H]MK-801 binding was calculated relative to stimulation measured in the presence of 1 mM glycine and 50 μM glutamate. […]\nFor compounds with relatively low activity (e.g., GLYX-13), the identification and elimination of background glycine levels can have a significant effect on the interpretation of this assay. […] Absolute background percentages are calculated. […]"}, "NR2C [1]": {"biological_target": "T4, NR2C (Rattus norvegicus, UniProt Q00961)", "T4 construct": "corresponding to 200 μg of rat cortical membrane extract protein in each reaction; from tissue; host or cells: rat telencephalon (frontal cortex and hippocampus), male Sprague-Dawley", "experiment": "[3H]MK-801 potentiation assay, NR2C", "details": "relative to stimulation by 1 mM glycine and 50 μM glutamate"}, "NR2C [2]": {"biological_target": "T5, NR2C (Rattus norvegicus, UniProt P35439+Q00961)", "T5 construct": "corresponding to 200 μg of rat cortical membrane extract protein in each reaction; from tissue; host or cells: rat telencephalon (frontal cortex and hippocampus), male Sprague-Dawley", "experiment": "[3H]MK-801 potentiation assay, NR2C", "details": "in presence of 50 μM glutamate; read-out: NR2C Potency logM (converted)"}, "[3]": {"details": "relative to stimulation by 1 mM glycine and 50 μM glutamate"}}, "note": "Non-standard residues stand in square brackets, D forms with d. Residues, ends and D or L forms follow the SMILES beside them. Hyp = O=C(O)[C@@H]1C[C@@H](O)CN1"}
{"smiles": "CC(=O)OC1C[C@@H](C(=O)N[C@@H](Cc2c[nH]c3ccccc23)C(=O)N[C@H](C(N)=O)[C@@H](C)O)N(C(=O)[C@@H](N)[C@@H](C)O)C1", "note": "(stereo partly shown) [Compound A-3]", "values": [{"measurement": "EC50", "setting": "NR2A; in presence of 50 μM glutamate, read-out: NR2A Potency logM (converted)", "result": 17.4, "unit": "pM"}, {"measurement": "NR2A Activity % max glycine", "setting": "NR2A; [3]", "result": 58.25, "unit": "% max glycine"}, {"measurement": "NR2D Potency logM", "setting": "NR2D; in presence of 50 μM glutamate", "result": "−13.68", "unit": "logM"}, {"measurement": "NR2D Activity % max glycine", "setting": "NR2D", "result": 35.17, "unit": "% max glycine"}]}
{"smiles": "C[C@@H](O)[C@H](NC(=O)[C@H](Cc1c[nH]c2ccccc12)NC(=O)[C@@H]1C[C@@H](O)CN1)C(N)=O", "note": "[Compound A-5] (H-[Hyp]-Trp-Thr-NH2)", "values": [{"measurement": "NR2B Potency logM", "setting": "NR2B; in presence of 50 μM glutamate", "result": "−13.86", "unit": "logM"}, {"measurement": "NR2B Activity % max glycine", "setting": "NR2B; [3]", "result": 29.53, "unit": "% max glycine"}, {"measurement": "NR2C Activity % max glycine", "setting": "NR2C [1]", "result": 38.75, "unit": "% max glycine"}, {"measurement": "EC50", "setting": "NR2C [2]", "result": 2.09, "unit": "pM"}, {"measurement": "EC50", "setting": "NR2D; in presence of 50 μM glutamate, read-out: NR2D Potency logM (converted)", "result": 2.34, "unit": "pM"}, {"measurement": "NR2D Activity % max glycine", "setting": "NR2D", "result": 41.34, "unit": "% max glycine"}]}
